# Data published in patent US20150104507A1 (UCB PHARMA GMBH, priority 2010, published 2015).
# Several values for one entry are separate records, joined by “and”; a condition that tells them apart may be missing. Identical values can stand only once. Like-named read-outs stand apart in the source and are kept apart here.
# Tests used:
# [1] = Thorough QT trial: dizziness as adverse event vs tmax; format: in vivo; settings: human, plasma, oral; day 6 of SP640; range 1-4 h; read-out: tmax, time for maximum LCM plasma concentration (median)
# Description: In a thorough QT trial safety profile of lacosamide (LCM) was characterized. During day 2-6 of multiple dose administration of an IR formulation (Vimpat®) of 200 or 400 mg LCM bid 45 times ‘DIZZINESS’ was detected as adverse event (AE). Time of onset was 1.4+/−0.8 h after actual administration of LCM. This corresponds exactly to the typical time for maximum LCM plasma concentration tmax (e.g., 1 h (median, range 1-4 h) at day 6 of SP640).
# [2] = PK-PD modeling of seizure frequency (Emax model, Example 54); format: in vivo, human; settings: human, plasma, read-out: Corresponding AUCτ,ss
# From the text: (§1) Objectives of the PK-PD analysis were to evaluate and describe the correlation between the LCM plasma concentration over time (PK parameter) and the reduction of daily seizures over time (PD parameter) based on the pooled data from the previous clinical human trials.
# (§2) The evaluation of PK-PD modeling was done based on the Emax model.
# (§3) The slope of the linear regression is equal to the mean daily number of seizures.
# (§4) In a first step, the validity of the developed equations for approximation of AUCτ,ss, the PK parameter of interest in the current PK-PD evaluation, was shown.
# (§5) Based on the relative difference of the individual slopes during Titration and Maintenance Phase vs Baseline slope and the approximated AUCτ,ss,m, the PK-PD evaluation was performed using a linear model, the Emax model, and the Emax 100 model. […] Finally, the Emax model had the lowest weighted sum of squares and was therefore selected as the most appropriate PK-PD model to describe the data. […] The AUC50 is defined as the AUCτ,ss that is needed in individuals to achieve 50% of the maximum effect (decrease in seizure frequency).
# [3] = test system: subjects with partial-onset seizures; test: as above; format: in vivo, human
# From the text: as §1, §2, §3, §4, §5
# [4] = cited from earlier work
# [5] = AUC of 67 μg/mL*h (mean dose 200 mg LCM bid)
# [6] = Emax model, daily dose 50 mg bid (subject with Vd 50 L, ke 0.06 h^-1)
# [7] = Emax model, daily dose 100 mg bid (subject with Vd 50 L, ke 0.06 h^-1)
# [8] = Emax model, daily dose 110 mg bid (subject with Vd 50 L, ke 0.06 h^-1), AUC50
# [9] = Emax model, daily dose 150 mg bid (subject with Vd 50 L, ke 0.06 h^-1)
# [10] = Emax model, daily dose 200 mg bid (subject with Vd 50 L, ke 0.06 h^-1)
# [11] = Emax model, daily dose 250 mg bid (subject with Vd 50 L, ke 0.06 h^-1)
# [12] = Emax model, daily dose 300 mg bid (subject with Vd 50 L, ke 0.06 h^-1)
structure (smiles),measurement,setting,value
"COC[C@@H](NC(C)=O)C(=O)NCc1ccccc1 [Lacosamide, (R)-2-Acetamido-N-benzyl-3-methoxypropionamide]",Tmax,[1],1 h
same,AUC,[2]; 50 mg,16700 ng·h/mL
same,AUC,[2]; 100 mg,33300 ng·h/mL
same,AUC,[2]; 110 mg,35900 ng·h/mL
same,AUC,[2]; 150 mg,50000 ng·h/mL
same,AUC,[2]; 200 mg,66700 ng·h/mL
same,AUC,[2]; 250 mg,83300 ng·h/mL
same,AUC,[2]; 300 mg,100000 ng·h/mL
same,decrease as percent of the maximum effect,[3]; [5],65%
same,decrease of the daily number of seizures,[3]; [5],46%
same,"AUC50 (AUC needed to achieve half of the maximum effect), arithmetic mean (SD)","[3]; Emax model, N = 615 subjects",35.9 (185.6) μg/mL*h
same,"AUC50, 1st quantile","[3]; Emax model, N = 615 subjects",0 µg·h/mL
same,"AUC50, 3rd quantile","[3]; Emax model, N = 615 subjects",27.27 µg·h/mL
same,"AUC50, median","[3]; Emax model, N = 615 subjects",1.05 µg·h/mL
same,"AUC50, range","[3]; Emax model, N = 615 subjects",0 to 3998 µg·h/mL
same,"Emax, 3rd quantile","[3]; Emax model, N = 615 subjects",100%
same,"Emax, arithmetic mean (SD)","[3]; Emax model, N = 615 subjects",71.0 (30.0) %
same,"Emax, median","[3]; Emax model, N = 615 subjects",77.0%
same,"Emax, range","[3]; Emax model, N = 615 subjects",0.06-100%
same,"Emax, maximum effect (reduction of the seizure frequency vs baseline)","[3]; Emax model, pooled clinical trials, adjunctive LCM",71%
same,"AUC50 (AUC at steady-state to achieve half of the maximum decrease in partial seizure frequency), mean","[3]; Emax model, pooled clinical trials, listed as LCM",35 µg·h/mL and 35.9 µg·h/mL
same,"Decrease of daily number of seizures, E(AUC) % of Emax",[3]; [6],31.7 % of Emax
same,"Decrease of daily number of seizures, E(AUC) % of base line",[3]; [6],22.5 % of base line
same,"Decrease of daily number of seizures, E(AUC) % of Emax",[3]; [7],48.1 % of Emax
same,"Decrease of daily number of seizures, E(AUC) % of base line",[3]; [7],34.2 % of base line
same,"Decrease of daily number of seizures, E(AUC) % of Emax",[3]; [8],50 % of Emax
same,"Decrease of daily number of seizures, E(AUC) % of base line",[3]; [8],35.1 % of base line
same,"Decrease of daily number of seizures, E(AUC) % of Emax",[3]; [9],58.2 % of Emax
same,"Decrease of daily number of seizures, E(AUC) % of base line",[3]; [9],41.3 % of base line
same,"Decrease of daily number of seizures, E(AUC) % of Emax",[3]; [10],65.0 % of Emax
same,"Decrease of daily number of seizures, E(AUC) % of base line",[3]; [10],46.1 % of base line
same,"Decrease of daily number of seizures, E(AUC) % of Emax",[3]; [11],69.9 % of Emax
same,"Decrease of daily number of seizures, E(AUC) % of base line",[3]; [11],49.6 % of base line
same,"Decrease of daily number of seizures, E(AUC) % of Emax",[3]; [12],73.6 % of Emax
same,"Decrease of daily number of seizures, E(AUC) % of base line",[3]; [12],52.2 % of base line
same,decrease as percent of the maximum effect,[3]; in vivo,74%
same,decrease of the daily number of (partial) seizures,[3]; in vivo,52%
same,"maximum dosage-normalized steady state plasma level (Cmax, ss, norm)","[4]; IR tablets twice daily, average distribution volume 50 litres",40 to 43 ng/mL/mg
same,Tmax,"[4]; IR tablets, after administration",1.4 to 1.5 h
same,elimination half-life,[4]; in vivo,13 to 14 h
same,bioavailability,[4]; oral,~100%
